Target: T1, USP28 (Homo sapiens, UniProt Q96RU2)
T1 sequence (Q96RU2 1-1077): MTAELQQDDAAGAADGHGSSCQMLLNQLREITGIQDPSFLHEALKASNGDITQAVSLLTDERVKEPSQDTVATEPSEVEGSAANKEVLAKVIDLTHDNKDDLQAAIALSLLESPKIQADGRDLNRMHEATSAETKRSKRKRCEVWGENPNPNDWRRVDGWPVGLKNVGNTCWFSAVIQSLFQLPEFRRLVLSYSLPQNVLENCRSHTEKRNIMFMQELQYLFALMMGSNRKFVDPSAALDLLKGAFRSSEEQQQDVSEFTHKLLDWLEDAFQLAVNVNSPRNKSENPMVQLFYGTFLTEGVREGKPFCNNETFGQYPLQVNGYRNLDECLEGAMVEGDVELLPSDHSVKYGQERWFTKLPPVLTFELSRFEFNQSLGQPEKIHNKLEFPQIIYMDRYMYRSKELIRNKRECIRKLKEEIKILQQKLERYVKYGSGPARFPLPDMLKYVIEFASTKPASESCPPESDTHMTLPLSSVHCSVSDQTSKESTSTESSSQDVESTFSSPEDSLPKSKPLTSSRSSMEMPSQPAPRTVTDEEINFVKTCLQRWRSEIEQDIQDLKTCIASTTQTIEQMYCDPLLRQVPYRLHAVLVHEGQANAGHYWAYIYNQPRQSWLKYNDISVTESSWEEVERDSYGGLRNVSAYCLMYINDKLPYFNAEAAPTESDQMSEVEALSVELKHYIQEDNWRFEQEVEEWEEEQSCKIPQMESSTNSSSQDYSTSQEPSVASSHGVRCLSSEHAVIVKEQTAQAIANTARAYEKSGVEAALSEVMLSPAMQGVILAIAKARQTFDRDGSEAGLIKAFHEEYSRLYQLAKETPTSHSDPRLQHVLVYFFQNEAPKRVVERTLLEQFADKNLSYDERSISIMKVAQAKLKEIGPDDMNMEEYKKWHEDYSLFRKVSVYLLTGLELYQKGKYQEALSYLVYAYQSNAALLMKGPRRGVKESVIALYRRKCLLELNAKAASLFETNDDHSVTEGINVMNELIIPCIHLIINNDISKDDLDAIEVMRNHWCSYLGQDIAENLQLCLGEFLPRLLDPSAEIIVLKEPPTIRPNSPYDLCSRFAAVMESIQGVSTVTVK
Experiment: Competitive activity-based protein profiling (target engagement, Ub-VME probe, Western blot)
Format: binding
Conditions: K562 cells lysed, treated with compound for 1 h, then incubated with Ub-VME
Experimental: K562 cells were lysed and treated with indicated concentrations of compound 1 for 1 h followed by incubation with Ub-VME. Ub-VME covalently modifies USP28, resulting in higher MW band observed by Western blot.
Cells were pelleted, washed with PBS buffer, lysed on ice (20 mM Tris pH 8, 150 mM NaCl, 1% NP-40, 10% glycerol, 1 mM TCEP, phosphatase inhibitor cocktails (Sigma P5726 and Calbiochem 524624), and protease inhibitors (pepstatin, leupeptin, PMSF, and aprotinin), and clarified by centrifugation. Protein content was quantified by BCA and diluted to 2 mg/mL in lysis buffer. Compounds were added at desired concentrations and incubated at room temperature for […]. Samples were then supplemented with 2 uM […] and incubated at room temperature with shaking for 15 minutes. Reactions were quenched with 4×LDS sample buffer (Thermo Fisher B0007) supplemented with 10% BME, vortexed vigorously, and heated to 95° C. for 5 minutes. Samples were resolved by SDS-PAGE and analyzed by Western blot with the indicated antibodies.

With `Cc1ccc(S(=O)(=O)N(C)C)cc1NC(=O)Cc1ccc(Cl)c(Cl)c1` [Compound 1] the “labeling of USP28 by covalent Ub-VME probe (Western blot, FIG. 2)” value was “prevents labeling of USP28 by the covalent Ub-VME probe”.

Target: T1, USP28
Experiment: Ubiquitin-Rhodamine110 assay
Format: biochemical
Conditions: USP28 at 1 nM, 30 minutes pre-incubation at room temperature, Ubiquitin-Rho110 substrate 125 nM
Experimental: USP28 (at 1 nM) was pre-incubated with different concentrations of inhibitors or DMSO as a control in 50 mM Tris pH 8, 50 mM NaCl, 0.002% Tween-20, 5 mM DTT. Compounds and protein were incubated for 30 minutes at room temperature prior to the addition of Ubiquitin-Rho110 (Boston Biochem) substrate for a final concentration of 125 nM. The initial rate of the reaction was measured by collecting fluorescence data at one-minute interval over 30-minute period using a Clariostar® fluorescence plate reader at excitation and emission wavelength of 485 nm and 535 nm, respectively. The calculated initial rate values were plotted against inhibitor concentrations to determine IC50s. All the experimental data were plotted using GraphPad Prism®.

`CN(C)S(=O)(=O)c1ccc(Cl)c(NC(=O)Cc2ccc(Cl)c(Cl)c2)c1` [Compound 16] and `Cc1ccc(S(=O)(=O)N(C)C)cc1NC(=O)Cc1ccc(Cl)c(Cl)c1` [Compound 1] cannot be ordered by IC50: under 1 µM for the first, under 1 µM for the second.

`Cc1ccc(S(=O)(=O)N(C)C)cc1C(=O)NCc1cccc(Cl)c1` [Compound 20] and `Cc1ccc(S(=O)(=O)N(C)C)cc1C(=O)NCc1ccc(Cl)c(Cl)c1` [Compound 21] cannot be ordered by IC50: under 1 µM for the first, under 1 µM for the second.

`CN(C)S(=O)(=O)c1cccc(NC(=O)Cc2ccc(Cl)c(Cl)c2)c1` [Compound 13] and `CS(=O)(=O)c1cccc(NC(=O)Cc2ccc(Cl)c(Cl)c2)c1` [Compound 6] fall in the same range of IC50: 10 to 100 µM for the first, 10 to 100 µM for the second.

First: Cc1ccc(S(=O)(=O)Nc2ccc(N3CCN(C)CC3)cc2)cc1NC(=O)Cc1ccc(Cl)c(Cl)c1 [Compound 15]
Second: Cc1ccc(S(=O)(=O)Nc2ccc(-n3ccnc3)cc2)cc1NC(=O)Cc1ccc(Cl)c(Cl)c1 [Compound 29]
The IC50 of the first is lower: under 1 µM for the first, 1 to 10 µM for the second. The first is the more potent here.

`Cc1ccc(S(=O)(=O)Nc2ccccc2)cc1NC(=O)Cc1ccc(Cl)c(Cl)c1` [Compound 12] and `Cc1ccc(S(=O)(=O)NCc2ccccc2)cc1NC(=O)Cc1ccc(Cl)c(Cl)c1` [Compound 14] cannot be ordered by IC50: under 1 µM for the first, under 1 µM for the second.

Compared with `CN(C)S(=O)(=O)c1ccc2[nH]c(Cc3ccc(Cl)c(Cl)c3)nc2c1` [Compound 27], `CCc1ccc(S(=O)(=O)N(C)C)cc1NC(=O)Cc1ccc(Cl)c(Cl)c1` [Compound 17] is lower in IC50: over 100 µM for the first, 1 to 10 µM for the second.

First: Cc1ccc(S(=O)(=O)NCc2ccccc2)cc1NC(=O)c1ccc(Cl)c(Cl)c1 [Compound 24]
Second: Cc1ccc(C(=O)NCc2ccccc2)cc1NC(=O)Cc1ccc(Cl)c(Cl)c1 [Compound 22]
The IC50 of the first is lower: under 1 µM for the first, 1 to 10 µM for the second. The first is the more potent here.

First: Cc1ccc(S(=O)(=O)N(C)C)cc1NC(=O)Cc1ccc([N+](=O)[O-])cc1 [Compound 4]
Second: Cc1ccc(S(=O)(=O)N(C)C)cc1NC(=O)Cc1ccc(O)cc1 [Compound 5]
The IC50 of the first is lower: 10 to 100 µM for the first, over 100 µM for the second.

Compared with `Cc1ccc(S(=O)(=O)Nc2ccccc2)cc1NC(=O)Cc1ccc2ccccc2c1` [Compound 23], `Cc1ccc(S(=O)(=O)N(C)C)cc1NC(=O)Cc1ccc(-c2ccccc2)cc1` [Compound 9] is higher in IC50: under 1 µM for the first, over 100 µM for the second. The first is the more potent here.

Compared with `CN(C)S(=O)(=O)c1ccc(NCc2ccccc2)c(NC(=O)Cc2ccc(Cl)c(Cl)c2)c1` [Compound 19], `Cc1ccc(S(=O)(=O)N(C)C)cc1NC(=O)Cc1ccccc1` [Compound 2] is lower in IC50: over 100 µM for the first, 1 to 10 µM for the second. The second is the more potent here.

First: CCN(CC)S(=O)(=O)c1cccc(NC(=O)Cc2ccc(Cl)c(Cl)c2)c1 [Compound 8]
Second: CN(C)S(=O)(=O)c1ccc(OC(F)(F)F)c(NC(=O)Cc2ccc(Cl)c(Cl)c2)c1 [Compound 18]
The IC50 of the first is lower: 1 to 10 µM for the first, 10 to 100 µM for the second. The first is the more potent here.

First: Cc1ccc(S(=O)(=O)N(C)C)cc1NC(=O)CN1CCN(C)CC1 [Compound 10]
Second: Cc1ccc(S(=O)(=O)N(C)C)cc1NC(=O)CCc1ccccc1 [Compound 7]
The IC50 of the first is lower: 1 to 10 µM for the first, over 100 µM for the second. The first is the more potent here.

Compared with `Cc1ccc(S(=O)(=O)N(C)C)cc1NC(=O)Cc1cccc(C(F)(F)F)c1` [Compound 3], `Cc1ccc(S(=O)(=O)N2CCCCC2)cc1NC(=O)Cc1ccc(Cl)c(Cl)c1` [Compound 11] is lower in IC50: 1 to 10 µM for the first, under 1 µM for the second. The second is the more potent here.

— patent US12668571B2, “Substituted 3-amino-4-methylbenzenesulfonamides as small molecule inhibitors of ubiquitin-specific protease 28” (Dana-Farber Cancer Institute, Inc., priority 2020, dated 2026)
